Here are results for 3 compounds from patent US20260365684A1, “PHYTOSPHINGOSINE-3,4-CYCLICPHOSPHATE COMPOUND AND PHARMACEUTICAL COMPOSITION COMPRISING THE SAME” (AXCESO BIOPHARMA CO., LTD., priority 2022, published 2026).

One assay has as its system C57BL/6 mice. The assay can be described thus: Survival in sepsis induced by cecal ligation and puncture (CLP). In kind it is in vivo, mouse. Particulars: 100 ng/mouse (5 μg/kg) at 6 and 16 hours after CLP; FIG. 8. How it is done: C57BL/6 mice aged 7-8 weeks were purchased from Jabio (Suwon, Gyeonggi-do) and sepsis was induced by cecal ligation and puncture (CLP).
Specifically, after anesthesia using 150 mg/kg of ketamine and 17.5 mg/kg of rompun, an abdominal incision of 1-2 cm was made to expose the cecum to induce sepsis. The cecum was ligated with 6-0 silk sutures at the distal end of the ileocecal valve, and a puncture was made with an 18-gauge needle. The perforated cecum was gently squeezed to push out 1-2 cm of feces, and the cecum was then retracted back into the abdominal cavity. The abdomen was then closed and pre-warmed normal saline (2.5 mL/100 g body weight) was injected into the mouse abdominal cavity immediately after the procedure. 6 and 16 hours after CLP treatment, the compound of formula (1a-1) was dissolved in phosphate buffered saline (PBS) and injected intravenously at 100 ng/mouse (5 μg/kg), and survival was examined for 10 days. […] In addition, as a drug-negative control, survival was examined in mice that received only PBS after CLP treatment.
For comparison, we also examined the survival of a control group treated with fingolimod (FTY720), a known S1P modulator, instead of the compound of formula (1a-1) under the same conditions.

The subject of a further assay is SIRT1. Particulars: known value; read-out: EC50 as SIRT1 activator; cited from earlier work.
The next assay deals with α-synuclein. The assay can be described thus: α-synuclein expression in differentiated SH-SY5Y dopaminergic neurons by western blot. It is filed as cell-based, human. Particulars: differentiated dopaminergic neurons treated with rotenone (RT); FIG. 6. As for the experimental part:
(§1) To analyze the effect on the expression of tyrosine hydroxylase (TH) and α-synuclein as neuron-specific proteins, western blot was performed.
(§2) SH-SY5Y cell line was treated with retinoic acid and 12-O-tetradecanoylphorbol-13-acetate (TPA) to induce differentiation into TH-secreting neurons for 6 days.
(§3) Differentiated dopaminergic neurons were lysed in PRO-PREP (Intronbio), a cell lysis solution containing protease inhibitor cocktail (Gendepot), and electrophoresed in 10% SDS polyacrylamide gels at 20 μg/well. Transfer was performed using PVDF (Merck millipore) as a membrane, and tyrosine hydroxylase antibody, «-synuclein antibody (Cell signaling), and β-actin antibody (Santa Cruz) were used for reaction for more than 2 hours. Protein expression was detected by staining with ECL substrate (Biorad) for development and graphed using the image J program.

Assay [1] concerns tyrosine hydroxylase (TH). Put plainly: Tyrosine hydroxylase expression in differentiated SH-SY5Y dopaminergic neurons by western blot. Particulars: differentiated dopaminergic neurons treated with rotenone (RT); FIG. 6. It is filed as cell-based, human. As for the experimental part:
as §1, §2, §3
(Immunoblotting shows a protein as a band on a membrane.)

Regarding `CCCCCCCCc1ccc(CCC(N)(CO)CO)cc1` [FTY720, fingolimod, reference compound], in the assay with C57BL/6 mice, the survival entry was “did not improve survival”.
The EC50 is the concentration at which the effect is half-maximal. In the case of `Oc1ccc(C=Cc2cc(O)cc(O)c2)cc1` [resveratrol], the EC50 in the assay on SIRT1 was […].
In the case of `C=C(C)[C@H]1Cc2c(ccc3c2O[C@@H]2COc4cc(OC)c(OC)cc4[C@@H]2C3=O)O1` [rotenone, reference compound], the “expression of α-synuclein” value with α-synuclein is “the expression of α-synuclein is increased”. Moreover, in assay [1], the “expression of TH” value was “the expression of TH is decreased”.
